Data from patent EP4582423A1, “NOVEL TRICYCLIC DERIVATIVE COMPOUND AND USES THEREOF” (Hanmi Pharm. Co., Ltd., priority 2022, dated 2024).

System: HCT116 MTAP-/- cells
Assay: Cell growth inhibition test (SRB staining)
Type: cell-based
Conditions: Homo sapiens, HCT-116, 144 h; HCT116 MTAP-/- cells, 0.64 nM - 2,000 nM, 6 dose points, 6 days, SRB staining, absorbance at 540 nm; read-out: HCT116 MTAP-/- cell growth inhibition (GI50)
Protocol: The synthetic compounds above were tested for cell growth inhibition against HCT116 cells.
HCT116 MTAP-/- (homozygous knockout of MTAP gene in HCT116 MTAP-WT cells by CRISPER/Cas9 method) cells were maintained in RPMI1640 medium containing 10 % FBS and 1 % penicillin-streptomycin. Approximately 5×10^2 cells were seeded in a 96-well plate and treated with a test compound. (0.64 nM - 2,000 nM, 6 dose points for HCT116 MTAP-/- cells for 5x and 6 days) cell growth was measured by SRB staining and absorbance was detected at 540 nm on a Synergy™ NEO microplate reader. The 50 % growth inhibition value (GI50) of the cell line was calculated using GraphPad Prism V9 software.

Compound: Cc1ncccc1-n1c(=O)c2nc(Sc3ccc(F)cc3)n(C)c2c2ccc(Cl)cc21 [Compound 36, 7-chloro-2-((4-fluorophenyl)thio)-1-methyl-5-(2-methylpyridin-3-yl)-1,5-dihydro-4H-imidazo[4,5-c]quinolin-4-one]
- GI50: < 100 nM

Compound: COc1ccc(Cc2nc3c(=O)n(-c4cccnc4C)c4nc(C(F)(F)F)ccc4c3n2C)cc1 [Compound 57, 2-(4-methoxybenzyl)-1-methyl-5-(2-methylpyridin-3-yl)-7-(trifluoromethyl)-1,5-dihydro-4H-imidazo[4,5-c][1,8]naphthyridin-4-one]
- GI50: < 100 nM

Compound: COc1ccc(Cc2nc3c(=O)n(-c4cccnc4C)c4cc(Cl)ccc4c3n2C)cc1 [Compound 21, 7-chloro-2-(4-methoxybenzyl)-1-methyl-5-(2-methylpyridin-3-yl)-1,5-dihydro-4H-imidazo[4,5-c]quinolin-4-one]
- GI50: < 100 nM

Compound: C#Cc1ccc2c3c(nc(Cc4ccc(OC)cc4)n3C)c(=O)n(-c3cccnc3C)c2c1 [Compound 47, 7-ethynyl-2-(4-methoxybenzyl)-1-methyl-5-(2-methylpyridin-3-yl)-1,5-dihydro-4H-imidazo[4,5-c]quinolin-4-one]
- GI50: < 100 nM

Compound: COc1ccc(Sc2nc3c(=O)n(-c4cccnc4C)c4cc(Cl)ccc4c3n2C)cc1 [Compound 35, 7-chloro-2-((4-methoxyphenyl)thio)-1-methyl-5-(2-methylpyridin-3-yl)-1,5-dihydro-4H-imidazo[4,5-c]quinolin-4-one]
- GI50: < 100 nM

Compound: Cc1ncccc1-n1c(=O)c2nc(Cc3ccc(OC(F)F)cc3)n(C)c2c2ccc(Cl)cc21 [Compound 33, 7-chloro-2-(4-(difluoromethoxy)benzyl)-1-methyl-5-(2-methylpyridin-3-yl)-1,5-dihydro-4H-imidazo[4,5-c]quinolin-4-one]
- GI50: < 100 nM

Compound: COc1ccc(S(=O)(=O)c2nc3c(=O)n(-c4ccccc4)c4cc(Cl)ccc4c3n2C)cc1 [Compound 19, 7-chloro-2-((4-methoxyphenyl)sulfonyl)-1-methyl-5-phenyl-1,5-dihydro-4H-imidazo[4,5-c]quinolin-4-one]
- GI50: 500 to 1000 nM
